In the Kinase Knowledgebase extract (Sharma et al. 2016):

Target: MAPK14 (UniProt Q16539)
Test: Inhibition of MAPK14 Kinase Activity

MAPK14, sequence (Q16539 whole entry, looked up): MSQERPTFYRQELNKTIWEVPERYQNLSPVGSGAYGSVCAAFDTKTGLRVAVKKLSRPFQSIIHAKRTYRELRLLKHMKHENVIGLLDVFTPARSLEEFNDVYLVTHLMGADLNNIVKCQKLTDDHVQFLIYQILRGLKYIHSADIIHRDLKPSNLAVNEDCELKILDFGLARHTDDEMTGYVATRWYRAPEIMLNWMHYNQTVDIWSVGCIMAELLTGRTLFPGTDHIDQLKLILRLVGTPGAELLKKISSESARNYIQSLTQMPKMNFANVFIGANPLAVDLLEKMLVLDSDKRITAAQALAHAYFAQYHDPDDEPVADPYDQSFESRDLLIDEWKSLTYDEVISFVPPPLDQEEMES

Row | SMILES | IC50 [µM]
1 | Cc1c(F)cc(C(=O)NC2CC2)cc1-c1ccc2c(cnn2CC(=O)N2CCOCC2)c1 | < 10
2 | CCCc1ccc(S(=O)(=O)n2ncc3cc(-c4cc(C(=O)NC5CC5)cc(F)c4C)ccc32)cc1 | < 10
3 | Cc1c(F)cc(C(=O)NC2CC2)cc1-c1ccc2c(cnn2S(=O)(=O)C(C)C)c1 | < 10
4 | Cc1ccc(C(=O)NC2CC2)cc1-c1ccc2c(cnn2S(=O)(=O)c2ccc3c(c2)CCO3)c1 | < 10
5 | CCCNC(=O)Cn1ncc2cc(-c3cc(C(=O)NC4CC4)cc(F)c3C)ccc21 | < 10
6 | CNC(=O)c1ccc(CNC(=O)Cn2ncc3cc(-c4cc(C(=O)NC5CC5)cc(F)c4C)ccc32)cc1 | < 10
7 | Cc1ccc(C(=O)NC2CC2)cc1-c1ccc2c(CC(=O)NCC3CC3)noc2c1 | < 10
8 | Cc1c(F)cc(C(=O)NC2CC2)cc1-c1ccc2c(NC3CC3)noc2c1 | < 10
9 | Cc1c(F)cc(C(=O)NC2CC2)cc1-c1ccc2c(C(=O)N(C)C)noc2c1 | < 10
10 | Cc1c(F)cc(C(=O)NC2CC2)cc1-c1ccc2c(cnn2S(=O)(=O)c2ccc(C#N)cc2)c1 | < 10
11 | Cc1ccc(C(=O)NC2CC2)cc1-c1ccc2c(cnn2S(=O)(=O)c2ccccc2C#N)c1 | < 10
12 | COc1ccc(CNC(=O)Cn2ncc3cc(-c4cc(C(=O)NC5CC5)cc(F)c4C)ccc32)cc1 | < 10
13 | Cc1c(F)cc(C(=O)NC2CC2)cc1-c1ccc2c(cnn2CC(=O)NCc2ccccc2)c1 | < 10
14 | Cc1ccc(C(=O)NC2CC2)cc1-c1ccc2c(cnn2CC(=O)NCC2CC2)c1 | < 10
15 | Cc1c(F)cc(C(=O)NC2CC2)cc1-c1ccc2c(cnn2S(=O)(=O)c2cccs2)c1 | < 10
16 | Cc1c(F)cc(C(=O)NC2CC2)cc1-c1ccc2[nH]nc(C)c2c1 | < 10
17 | Cc1c(F)cc(C(=O)NC2CC2)cc1-c1ccc2c(cnn2S(=O)(=O)C2CC2)c1 | < 10
18 | Cc1ccc(C(=O)NC2CC2)cc1-c1ccc2c(cnn2S(=O)(=O)c2ccccc2F)c1 | < 10
19 | Cc1ccc(C(=O)NC2CC2)cc1-c1ccc2c(cnn2S(=O)(=O)CC(F)(F)F)c1 | < 10
20 | Cc1ccc(NC(=O)c2ccnc(N3CCCC3)c2)cc1-c1ccc2c(C3CCNCC3)noc2c1 | < 10
21 | Cc1ccc(C(=O)NC2CC2)cc1-c1ccc2c(CC(=O)N3CCOCC3)noc2c1 | < 10
22 | Cc1ccc(C(=O)NC2CC2)cc1-c1ccc2[nH]ncc2c1 | < 10
23 | Cc1ccc(C(=O)NC2CC2)cc1-c1ccc2c(CC(=O)NCCO)noc2c1 | < 10
24 | Cc1c(F)cc(C(=O)NC2CC2)cc1-c1ccc2c(cnn2S(=O)(=O)/C=C/c2ccccc2)c1 | < 10

Row | SMILES | IC50 [µM]
25 | COc1cccc(S(=O)(=O)n2ncc3cc(-c4cc(C(=O)NC5CC5)cc(F)c4C)ccc32)c1 | < 10
26 | Cc1ccc(C(=O)Nc2cccc(N3CCOCC3)c2)cc1-c1ccc2c(C)noc2c1 | < 10
27 | Cc1c(F)cc(C(=O)NC2CC2)cc1-c1ccc2c(ccn2S(=O)(=O)c2ccccc2)c1 | < 10
28 | Cc1ccc(C(=O)NC2CC2)cc1-c1ccc2c(cnn2S(=O)(=O)Cc2ccccc2)c1 | < 10
29 | Cc1cccc(S(=O)(=O)n2ncc3cc(-c4cc(C(=O)NC5CC5)cc(F)c4C)ccc32)c1 | < 10
30 | Cc1ccc(C(=O)NC2CC2)cc1-c1ccc2c(cnn2CC2CC2)c1 | < 10
31 | Cc1ccc(C(=O)NC2CC2)cc1-c1ccc2c(cnn2S(=O)(=O)c2cccc(F)c2)c1 | < 10
32 | Cc1ccc(C(=O)NC2CC2)cc1-c1ccc2c(CC(=O)NCCCO)noc2c1 | < 10
33 | Cc1c(F)cc(C(=O)NC2CC2)cc1-c1ccc2c(cnn2C(=O)OC(C)(C)C)c1 | < 10
34 | COC(=O)Cc1noc2cc(-c3cc(C(=O)NC4CC4)ccc3C)ccc12 | < 10
35 | Cc1c(F)cc(C(=O)NC2CC2)cc1-c1ccc2c(cnn2S(=O)(=O)c2ccc(C(C)C)cc2)c1 | < 10
36 | Cc1c(F)cc(C(=O)NC2CC2)cc1-c1ccc2c(cnn2S(=O)(=O)c2cn(C)c(C)n2)c1 | < 10
37 | Cc1ccc(C(=O)NC2CC2)cc1-c1ccc2c(cnn2S(=O)(=O)c2cn(C)cn2)c1 | < 10
38 | COc1cccc(CNC(=O)Cc2noc3cc(-c4cc(C(=O)NC5CC5)ccc4C)ccc23)c1 | < 10
39 | Cc1ccc(C(=O)NC2CC2)cc1-c1ccc2c(CC(=O)Nc3nccs3)noc2c1 | < 10
40 | Cc1ccc(C(=O)NC2CC2)cc1-c1ccc2c(CC(=O)NC3CC3)noc2c1 | < 10
41 | COc1ccc(S(=O)(=O)n2ncc3cc(-c4cc(C(=O)NC5CC5)ccc4C)ccc32)cc1OC | < 10
42 | CCS(=O)(=O)n1ncc2cc(-c3cc(C(=O)NC4CC4)cc(F)c3C)ccc21 | < 10
43 | Cc1ccc(C(=O)NC2CC2)cc1-c1ccc2c(C3CCNCC3)noc2c1 | < 10
44 | Cc1c(F)cc(C(=O)NC2CC2)cc1-c1ccc2c(cnn2S(=O)(=O)c2cccc(Cl)c2)c1 | < 10
45 | Cc1c(F)cc(C(=O)NC2CC2)cc1-c1ccc2c(cnn2S(=O)(=O)c2ccc(F)cc2F)c1 | < 10
46 | CCNC(=O)Cc1noc2cc(-c3cc(C(=O)NC4CC4)ccc3C)ccc12 | < 10
47 | Cc1noc(C)c1S(=O)(=O)n1ncc2cc(-c3cc(C(=O)NC4CC4)cc(F)c3C)ccc21 | < 10
48 | COC(=O)c1ccc(S(=O)(=O)n2ncc3cc(-c4cc(C(=O)NC5CC5)ccc4C)ccc32)o1 | < 10

Row | SMILES | IC50 [µM]
49 | Cc1ccc(C(=O)NC2CC2)cc1-c1ccc2c(cnn2S(=O)(=O)c2cccs2)c1 | < 10
50 | Cc1c(F)cc(C(=O)NC2CC2)cc1-c1ccc2c(cnn2S(=O)(=O)Cc2ccccc2)c1 | < 10
51 | COc1ccc(S(=O)(=O)n2ncc3cc(-c4cc(C(=O)NC5CC5)cc(F)c4C)ccc32)cc1 | < 10
52 | Cc1c(F)cc(C(=O)NC2CC2)cc1-c1ccc2c(cnn2S(=O)(=O)c2ccccc2Cl)c1 | < 10
53 | Cc1ccc(C(=O)Nc2cccc(N3CCOCC3)c2)cc1-c1ccc2c(C3CCNCC3)noc2c1 | < 10
54 | CNC(=O)c1noc2cc(-c3cc(C(=O)NC4CC4)cc(F)c3C)ccc12 | < 10
55 | Cc1ccc(C(=O)Nc2ccnc(N3CCCC3)c2)cc1-c1ccc2c(C)noc2c1 | < 10
56 | Cc1c(F)cc(C(=O)NC2CC2)cc1-c1ccc2c(cnn2S(=O)(=O)c2ccccc2)c1 | < 10
57 | Cc1ccc(C(=O)NC2CC2)cc1-c1ccc2c(cnn2C2CCNCC2)c1 | < 10
58 | COc1cccc(NC(=O)c2ccc(C)c(-c3ccc4c(C5CCNCC5)noc4c3)c2)c1 | < 10
59 | Cc1ccc(NC(=O)c2ccnc(N3CCCC3)c2)cc1-c1ccc2onc(C)c2c1 | < 10
60 | Cc1ccc(C(=O)NC2CC2)cc1-c1ccc2c(cnn2S(=O)(=O)c2cccc(C#N)c2)c1 | < 10
61 | CNC(=O)Cc1noc2cc(-c3cc(C(=O)NC4CC4)ccc3C)ccc12 | < 10
62 | Cc1ccc(C(=O)Nc2nncs2)cc1-c1ccc2c(C3CCNCC3)noc2c1 | < 10
63 | Cc1c(F)cc(C(=O)NC2CC2)cc1-c1ccc2c(cnn2S(=O)(=O)c2ccc(F)c(F)c2)c1 | < 10
64 | Cc1ccc(C(=O)NCC2CC2)cc1-c1ccc2c(C3CCNCC3)noc2c1 | < 10
65 | Cc1c(F)cc(C(=O)NC2CC2)cc1-c1ccc2c(S(C)(=O)=O)n[nH]c2c1 | < 10
66 | Cc1c(F)cc(C(=O)NC2CC2)cc1-c1ccc2c(cnn2S(=O)(=O)c2cc(F)ccc2F)c1 | < 10
67 | Cc1ccc(C(=O)NC2CC2)cc1-c1ccc2c(CN3CCOCC3)noc2c1 | < 10
68 | Cc1ccc(C(=O)NC2CC2)cc1-c1ccc2c(N3CCNCC3)noc2c1 | < 10
69 | Cc1ccc(C(=O)NC2CC2)cc1-c1ccc2c(cnn2CC(=O)NC(C)C)c1 | < 10
70 | Cc1ccc(C(=O)NC2CC2)cc1-c1ccc2c(cnn2S(=O)(=O)c2ccc(F)cc2)c1 | < 10
71 | Cc1c(F)cc(C(=O)NC2CC2)cc1-c1ccc2c(cnn2S(=O)(=O)c2ccccc2F)c1 | < 10
72 | CCCNC(=O)Cn1ncc2cc(-c3cc(C(=O)NC4CC4)ccc3C)ccc21 | < 10

Row | SMILES | IC50 [µM]
73 | CCCCc1ccc(S(=O)(=O)n2ncc3cc(-c4cc(C(=O)NC5CC5)cc(F)c4C)ccc32)cc1 | < 10
74 | Cc1c(F)cc(C(=O)NC2CC2)cc1-c1ccc2c(cnn2CC(=O)NCC(C)(C)C)c1 | < 10
75 | Cc1ccc(C(=O)Nc2nccs2)cc1-c1ccc2c(C3CCNCC3)noc2c1 | < 10
76 | COC(=O)c1ccc(CS(=O)(=O)n2ncc3cc(-c4cc(C(=O)NC5CC5)ccc4C)ccc32)cc1 | < 10
77 | Cc1ccc(S(=O)(=O)n2ncc3cc(-c4cc(C(=O)NC5CC5)ccc4C)ccc32)cc1 | < 10
78 | Cc1ccccc1S(=O)(=O)n1ncc2cc(-c3cc(C(=O)NC4CC4)cc(F)c3C)ccc21 | < 10
79 | CCCCS(=O)(=O)n1ncc2cc(-c3cc(C(=O)NC4CC4)cc(F)c3C)ccc21 | < 10
80 | Cc1c(F)cc(C(=O)NC2CC2)cc1-c1ccc2c(cnn2S(=O)(=O)c2ccc(Cl)cc2)c1 | < 10
81 | Cc1ccc(C(=O)NC2CC2)cc1-c1ccc2c(cnn2S(=O)(=O)c2ccc(F)c(F)c2)c1 | < 10
82 | Cc1c(F)cc(C(=O)NC2CC2)cc1-c1ccc2[nH]ncc2c1 | < 10
83 | Cc1ccc(C(=O)NC2CC2)cc1-c1ccc2c(cnn2CC(=O)NCC(C)(C)C)c1 | < 10
84 | Cc1ccc(C(=O)NC2CC2)cc1-c1ccc2c(cnn2S(=O)(=O)c2ccccc2[N+](=O)[O-])c1 | < 10
85 | Cc1ccc(C(=O)NC2CC2)cc1-c1ccc2c(cnn2CC(=O)N2CCOCC2)c1 | < 10
86 | Cc1c(F)cc(C(=O)NC2CC2)cc1-c1ccc2c(C(=O)NC3CC3)noc2c1 | < 10
87 | Cc1ccc(C(=O)NC2CC2)cc1-c1ccc2c(cnn2S(=O)(=O)c2c(C)nn(C)c2C)c1 | < 10
88 | Cc1ccc(CNC(=O)Cn2ncc3cc(-c4cc(C(=O)NC5CC5)ccc4C)ccc32)cc1 | < 10
89 | Cc1ccc(C(=O)NC2CC2)cc1-c1ccc2c(cnn2CC(=O)NCc2ccccc2)c1 | < 10
90 | Cc1c(F)cc(C(=O)NC2CC2)cc1-c1ccc2c(cnn2S(=O)(=O)c2cc(F)cc(F)c2)c1 | < 10
91 | Cc1ccc(C(=O)NC2CC2)cc1-c1ccc2c(cnn2S(=O)(=O)c2c(C)noc2C)c1 | < 10
92 | Cc1ccc(C(=O)NC2CC2)cc1-c1ccc2c(S(=O)(=O)c3ccc(F)cc3)n[nH]c2c1 | < 10
93 | CCCS(=O)(=O)n1ncc2cc(-c3cc(C(=O)NC4CC4)ccc3C)ccc21 | < 10
94 | Cc1ccc(F)cc1S(=O)(=O)n1ncc2cc(-c3cc(C(=O)NC4CC4)cc(F)c3C)ccc21 | < 10
95 | Cc1c(F)cc(C(=O)NC2CC2)cc1-c1ccc2c(cnn2S(=O)(=O)c2ccc(Cl)s2)c1 | < 10
